Test results published in patent publication US20250312341A1, “METHODS FOR TREATING PATIENTS WITH LOCALLY ADVANCED AND/OR METASTATIC SOLID TUMORS USING A DGK ZETA INHIBITOR” (ASTELLAS PHARMA INC., priority 2022, published 2025).

How the values were obtained:
[1] = 4-week repeated dose toxicity study in cynomolgus monkeys; type: in vivo
Protocol: (§1) Compound I has been tested in numerous preclinical studies. Data from the 4-week repeated dose toxicity study in rats and 4-week repeated dose toxicity study in cynomolgus monkeys determined STD10 in rats to be 30 mg/kg/day and the HNSTD in cynomolgus monkeys to be 3 mg/kg/day. Human equivalent doses based on body surface area conversion (conversion factors: 0.16 for rat, 0.32 for monkey) of the STD10 in rats and the HNSTD in cynomolgus monkeys are 4.8 mg/kg and 0.96 mg/kg, respectively. For a person of 60 kg body weight, one tenth of the rat STD10 is 28.8 mg (4.8 mg/kg× 1/10×60 kg) and one sixth of the HNSTD is 9.6 mg (0.96 mg/kg×⅙×60 kg). Cynomolgus monkey is the more sensitive species. Therefore, based on cynomolgus monkey HNSTD, the starting dose in human is judged to be 9.6 mg/participant once daily (QD) given orally (actual starting dose will be 10 mg based on 10 mg tablet strength).

[2] = tested on: T cell; assay: Nonclinical pharmacology: DAG downstream pathway and T cell activation upon TCR stimulation; type: cell-based
[3] = tested on: syngeneic mouse models (inflamed tumor and TIL-poor tumor models); assay: Antitumor efficacy in syngeneic mouse tumor models; type: in vivo
[4] = 4-week repeated dose toxicity study in rats; type: in vivo
Protocol: as §1

[5] = Nonclinical safety assessments; type: in vivo
[6] = target: DGKζ (Homo sapiens, UniProt Q13574); assay: Nonclinical pharmacology: inhibition of DGKζ activity; type: biochemical; details: nonclinical pharmacology studies
DGKζ, sequence (Q13574 whole entry, species assumed): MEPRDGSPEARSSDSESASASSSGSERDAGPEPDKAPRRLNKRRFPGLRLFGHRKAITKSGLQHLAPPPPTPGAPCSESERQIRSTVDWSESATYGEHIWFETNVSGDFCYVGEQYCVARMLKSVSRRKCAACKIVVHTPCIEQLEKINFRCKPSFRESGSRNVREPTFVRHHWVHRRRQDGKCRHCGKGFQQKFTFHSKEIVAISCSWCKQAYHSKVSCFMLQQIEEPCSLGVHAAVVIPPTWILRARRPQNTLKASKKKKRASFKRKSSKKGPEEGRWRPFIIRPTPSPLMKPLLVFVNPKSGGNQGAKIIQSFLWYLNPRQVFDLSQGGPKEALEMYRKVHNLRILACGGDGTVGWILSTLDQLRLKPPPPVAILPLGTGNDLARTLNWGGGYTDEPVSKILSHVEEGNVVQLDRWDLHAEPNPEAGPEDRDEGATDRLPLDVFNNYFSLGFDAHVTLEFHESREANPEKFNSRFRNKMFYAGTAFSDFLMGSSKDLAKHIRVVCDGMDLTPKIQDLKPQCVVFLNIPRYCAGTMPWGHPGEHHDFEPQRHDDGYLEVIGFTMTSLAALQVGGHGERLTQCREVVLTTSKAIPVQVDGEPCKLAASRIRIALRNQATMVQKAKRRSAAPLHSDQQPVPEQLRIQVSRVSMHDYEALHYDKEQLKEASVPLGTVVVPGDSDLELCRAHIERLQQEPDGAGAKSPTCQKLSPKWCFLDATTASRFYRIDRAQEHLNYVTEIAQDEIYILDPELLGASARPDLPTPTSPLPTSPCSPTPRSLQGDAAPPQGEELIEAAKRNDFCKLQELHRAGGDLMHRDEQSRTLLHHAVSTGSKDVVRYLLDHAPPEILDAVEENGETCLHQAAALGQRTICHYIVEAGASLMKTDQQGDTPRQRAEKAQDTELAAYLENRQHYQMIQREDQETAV

[7] = tested on: peripheral blood mononuclear cells (PBMCs); assay: Preclinical in vitro CD69 expression by PBMCs after TCR mediated stimulation; type: cell-based; details: after the TCR mediated stimulation
Source text: The whole blood samples will be collected from the treated patients to evaluate pharmacodynamics effects of the Compound I. The preclinical in vitro studies have identified CD69 expression by peripheral blood mononuclear cells (PBMCs) as the best pharmacodynamic biomarker candidate. The CD69 is early activation biomarker expressed by many immune cells including T-cells. […] To evaluate the pharmacodynamics effect of Compound I, the PBMCs will be isolated and stimulated in vitro by CD3/CD28; the expression of the CD69 will be measured by flow cytometry.

Q: For `CNC[C@H]1CN(c2c(NC(=O)c3ccn(-c4ccnnc4)n3)ccc(Oc3ccccc3F)c2C(F)(F)F)CCN1C` [Compound I, N-[4-(2-Fluorophenoxy)-2-{(3S)-4-methyl-3-[(methylamino)methyl]piperazin-1-yl}-3-(trifluoromethyl)phenyl]-1-(pyridazin-4-yl)-1H-pyrazole-3-carboxamide], which “Human equivalent dose of the HNSTD in cynomolgus monkeys” value ([1]; body surface area conversion, factor 0.32 for monkey) is on record?
A: 0.96 mg/kg

Q: And the HNSTD ([1]; cynomolgus monkeys, 4-week repeated dose)?
A: 3 mg/kg/day

Q: And the “activation of DAG downstream pathways and T cell activation” value [2]?
A: enhances activation of DAG downstream pathways as well as T cell activation

Q: And the Anti-tumor efficacy ([3]; anti-PD-1 poor-responsive syngeneic mouse models as well as responsive models)?
A: demonstrated

Q: And the antitumor efficacy ([3]; oral administration, inflamed tumor and TIL-poor tumor models)?
A: demonstrated antitumor efficacy

Q: And the “Human equivalent dose of the STD10 in rats” value ([4]; body surface area conversion, factor 0.16 for rat)?
A: 4.8 mg/kg

Q: And the STD10 ([4]; rats, 4-week repeated dose)?
A: 30 mg/kg/day

Q: And the nonclinical safety findings [5]?
A: risk of effect on body weight, gastrointestinal tract, electrocardiogram (ECG) parameters, hemodynamic and body temperature, lymphohematopoietic system and reproductive toxicity

Q: What about the DGKζ activity [6] of the same compound?
A: inhibits DGKζ activity

Q: And the “expression of CD69” value [7]?
A: induces increased expression of CD69
